Laboratory results as given in patent publication US12691086B2, “Methods of treating systemic sclerosis and idiopathic pulmonary fibrosis” (HORIZON THERAPEUTICS IRELAND DAC, priority 2022, dated 2026).
“Also recorded” adds a separate entry of the source.

Experiments:
thrombosis [1] = assay: Model of thrombosis in mouse; format: in vivo; conditions: one model in mouse
tight skin (Tsk-1) mice = assay: Tight skin (Tsk-1) mice model of skin fibrosis; format: in vivo, mouse; conditions: 30 mg/kg/day
Source text: Two models of skin fibrosis were used to evaluate the effect of Compound I in comparison with imatinib mesylate, used as a reference.

[2] = target: lysophosphatidic acid receptor 1 (LPAR1) (Homo sapiens, UniProt Q92633); assay: LPAR1 antagonism
[3] = system: leukocytes and total inflammatory cells in broncho-alveolar lavage; assay: Broncho-alveolar lavage of presensitized mice treated with ovalbumin; format: in vivo
[4] = target: T1, organic anion transporter 3 (OAT3) (Homo sapiens, UniProt Q8TCC7); assay: In vitro inhibition of organic anion transporter 3; format: in vitro ADME
T1 sequence (Q8TCC7 1-542): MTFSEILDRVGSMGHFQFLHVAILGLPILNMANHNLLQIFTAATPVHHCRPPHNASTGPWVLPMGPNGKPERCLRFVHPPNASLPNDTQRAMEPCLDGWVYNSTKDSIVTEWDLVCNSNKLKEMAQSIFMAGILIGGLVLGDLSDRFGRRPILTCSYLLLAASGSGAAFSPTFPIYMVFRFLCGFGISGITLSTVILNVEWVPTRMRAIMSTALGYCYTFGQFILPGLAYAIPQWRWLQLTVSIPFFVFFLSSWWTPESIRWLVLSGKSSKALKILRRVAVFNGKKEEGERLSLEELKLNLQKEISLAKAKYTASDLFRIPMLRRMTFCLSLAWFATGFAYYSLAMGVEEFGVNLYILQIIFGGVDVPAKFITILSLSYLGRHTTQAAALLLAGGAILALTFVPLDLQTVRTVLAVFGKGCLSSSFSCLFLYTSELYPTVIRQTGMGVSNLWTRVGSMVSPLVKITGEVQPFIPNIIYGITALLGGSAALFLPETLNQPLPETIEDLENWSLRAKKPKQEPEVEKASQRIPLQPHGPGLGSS

thrombosis [5] = assay: Acute models of coagulation and arterial thrombosis (two models in rats); format: in vivo
Source text: (§1) All these pathological events can be observed in SSc patients at different levels and further support the use of Compound I in these patients.

[6] = system: patients with early dcSSc; conditions: Allanore et al. 2018, cited from earlier work
[7] = target: T2, organic anion transporter 1 (OAT1) (Homo sapiens, UniProt Q4U2R8); assay: In vitro inhibition of organic anion transporter 1; format: in vitro ADME
T2 sequence (Q4U2R8 1-563): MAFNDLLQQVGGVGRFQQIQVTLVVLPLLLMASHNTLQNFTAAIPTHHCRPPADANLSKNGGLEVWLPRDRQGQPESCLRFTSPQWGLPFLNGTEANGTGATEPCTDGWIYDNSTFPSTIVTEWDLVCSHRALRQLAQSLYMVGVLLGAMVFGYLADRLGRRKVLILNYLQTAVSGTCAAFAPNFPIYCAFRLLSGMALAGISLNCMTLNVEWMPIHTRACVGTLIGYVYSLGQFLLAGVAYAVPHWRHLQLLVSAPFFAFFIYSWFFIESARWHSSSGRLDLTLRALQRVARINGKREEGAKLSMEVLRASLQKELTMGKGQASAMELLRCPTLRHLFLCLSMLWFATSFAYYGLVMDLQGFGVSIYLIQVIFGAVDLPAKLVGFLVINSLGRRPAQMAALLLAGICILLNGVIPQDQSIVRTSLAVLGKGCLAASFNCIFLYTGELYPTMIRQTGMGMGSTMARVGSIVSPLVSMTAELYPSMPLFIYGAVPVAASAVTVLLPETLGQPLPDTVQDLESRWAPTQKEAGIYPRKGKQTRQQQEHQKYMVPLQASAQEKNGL

[8] = Multiple-dose (BID) PK at steady state with meals in healthy adult subjects; format: in vivo, human; conditions: for t1/2 / half-life: median; for Ctrough / AUC / Cmax: steady state, mean (% CV); for AUC / Cmax / half-life: human, plasma, oral
Protocol: The PK of Compound I and food effect were evaluated in an open-label study in healthy volunteers to inform the dose and dosing condition of the tablet formulations used in the clinical studies. Dose proportionality and food effect were evaluated using a 2-way, 2-period crossover design in two cohorts:150 mg and 300 mg single dose under fasting condition in Cohort 1 and 450 mg single dose under fasting and high-fat, high calorie meal condition in Cohort 2. Multiple-dose PK was evaluated using a 2-period, fixed sequence crossover design. Subjects received Compound I twice a day (BID) of 300 mg (Cohort 3) or 450 mg (Cohort 4) administered with low-fat meals in Period 1 and with high-fat meals in Period 2.
PK sample collections: For cohort 1 and 2, blood samples were collected at predose, 0.5, 1, 2, 3, 4, 6, 8, 12, 24, 36, 48, 72, 96 and 120 h post dose. For cohort 3 and 4, blood samples were collected at predose, 0.5, 1, 2, 4, 5, 12 hrs after the first dose on Day 1. After the last dose on Day 5, PK samples were taken at predose, 0.5, 1, 2, 4, 6, 12, 24, 36, 60, 84, 108 hr in Period 1 and predose, 0.5, 1, 2, 4, 6, 12 hours post last dose in Period 2.
Plasma concentrations of Compound I were determined using a validated high performance liquid chromatography-tandem mass spectrometry (HPLC MS/MS) method. The analytical range of Compound I were 250-50,000 ng/mL (high range) and […] (low range). Dose-proportionality of pharmacokinetic parameters were examined by analysis of variance (ANOVA) where the AUC0-last, AUC0-inf, and Cmax parameters were dose normalized. 90% confidence intervals (CIs) were derived by exponentiation of the CIs obtained for the difference between the treatment LSMs (Least square means). Dose proportionality was established if the 90% CI for the ratio of the geometric means for the dose-normalized parameters lay within the limits of (0.7, 1.43).

skin fibrosis = conditions: mouse, in vivo; cited from earlier work
renal failure = assay: Models of hypertension-induced or nephrotoxicity-induced renal failure; conditions: in vivo
Source text: as §1

[9] = 300 mg BID, High-fat reduced calorie meal
[10] = 450 mg BID, High-fat high calorie meal
[11] = 300 mg, 300 mg BID, High-fat reduced calorie meal
[12] = 300 mg, 300 mg BID, Low-fat meal
[13] = 450 mg, 450 mg BID, High-fat high calorie meal
[14] = 450 mg, 450 mg BID, Low-fat meal

Sequence of lysophosphatidic acid receptor 1 (LPAR1) (Q92633 whole entry): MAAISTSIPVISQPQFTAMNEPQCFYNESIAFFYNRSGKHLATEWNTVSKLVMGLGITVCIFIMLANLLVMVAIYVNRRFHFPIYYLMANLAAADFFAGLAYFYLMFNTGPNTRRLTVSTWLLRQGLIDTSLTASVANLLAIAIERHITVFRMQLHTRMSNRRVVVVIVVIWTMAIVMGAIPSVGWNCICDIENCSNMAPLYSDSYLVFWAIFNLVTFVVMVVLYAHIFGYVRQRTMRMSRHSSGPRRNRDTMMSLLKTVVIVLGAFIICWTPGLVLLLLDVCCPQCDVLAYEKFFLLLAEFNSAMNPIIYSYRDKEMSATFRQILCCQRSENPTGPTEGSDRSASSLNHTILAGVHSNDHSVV

COc1ccc(C(=O)NC2(C(=O)O)Cc3ccccc3C2)cc1OCCc1cccc(C)c1 [Compound I, 2-(4-methoxy-3-(3-methylphenethoxy)benzamido)-2,3-dihydro-1H-indene-2-carboxylic acid]
antithrombotic activity (thrombosis [1]): demonstrated antithrombotic activity
progression of skin fibrosis (tight skin (Tsk-1) mice): inhibit the progression of skin fibrosis at a similar level than imatinib
LPAR1 antagonist activity [2]: potent and selective antagonist
inflammation in model of lung injury ([3]; predominant Th2-type response): reduces inflammation
accumulation of leukocytes and total inflammatory cells in broncho-alveolar lavage ([3]; presensitized mice treated with ovalbumin): significant inhibitory effect
inhibition of OAT3 [4]: inhibitor
antithrombotic activity (thrombosis [5]): moderate but significant antithrombotic activity; also recorded: demonstrated antithrombotic activity
most frequent treatment-emergent adverse events (TEAEs) ([6]; 8-week double-blind period): headache, diarrhea, nausea and fall
tolerability ([6]; about 300 mg BID up to 24 weeks): well tolerated
clinical outcome measures (mRSS, HAQ-DI, SHAQ components, disease severity VAS, pruritus VAS) ([6]; about 300 mg BID): improved outcome measures; also recorded: numerical improvement
target engagement [6]: demonstrated target engagement
inhibition of OAT1 [7]: inhibitor
t1/2 [8, 9]: 24.6 h
Ctrough [8, 9]: 8627 (17%) ng/mL
Ctrough ([8]; 300 mg BID, Low-fat meal): 6570 (13%) ng/mL
t1/2 [8, 10]: 27.7 h
Ctrough [8, 10]: 11000 (23%) ng/mL
Ctrough ([8]; 450 mg BID, Low-fat meal): 11000 (35%) ng/mL
AUC [8, 11]: 166 µg·h/mL
Cmax [8, 11]: 21700 ng/mL
AUC [8, 12]: 129 µg·h/mL
Cmax [8, 12]: 15900 ng/mL
AUC [8, 13]: 204 µg·h/mL
Cmax [8, 13]: 25800 ng/mL
AUC [8, 14]: 163 µg·h/mL
Cmax [8, 14]: 18400 ng/mL
half-life ([8]; 300 mg BID, Low-fat meal): 24.6 h
half-life ([8]; 450 mg BID, Low-fat meal): 27.7 h
collagen content (skin fibrosis): reduced
dermal thickening (skin fibrosis): reversed
myofibroblast differentiation (skin fibrosis): significantly inhibited
kidney function (renal failure): improved kidney function
